Key:
[1] = 101.33 kPa, Liquid, Vibrating tube method
[2] = relative permittivity at various frequencies (dimensionless); settings: 100 kPa, Liquid, Frequency=1 MHz, Parallel plate capacitor
[3] = excess molar enthalpy (molar enthalpy of mixing); xn = mol fraction of the nth substance listed; settings: 100 kPa, Liquid, Calvet calorimetry

CCC(C)CO (stereo not given) [2-methyl-1-butanol]
Settings	mass density, [1] [kg/m3]	relative permittivity, [2]
298.15 K	814.98	15.52
308.15 K	807.63	14.07

CCC(C)CO (stereo not given) [2-methyl-1-butanol] + CCCCOCCCC
[3]
Settings	excess molar enthalpy [kcal/mol]
298.15 K, x2 = 0.0954	0.0664
298.15 K, x2 = 0.162	0.113
298.15 K, x2 = 0.2536	0.165
298.15 K, x2 = 0.3156	0.193
298.15 K, x2 = 0.4007	0.221
298.15 K, x2 = 0.4806	0.241
298.15 K, x2 = 0.5445	0.246
298.15 K, x2 = 0.6338	0.248
298.15 K, x2 = 0.7017	0.237
298.15 K, x2 = 0.7832	0.211
298.15 K, x2 = 0.8542	0.176
298.15 K, x2 = 0.9335	0.101
308.15 K, x2 = 0.0798	0.0595
308.15 K, x2 = 0.152	0.111
308.15 K, x2 = 0.2539	0.168
308.15 K, x2 = 0.3152	0.198
308.15 K, x2 = 0.4069	0.224
308.15 K, x2 = 0.4701	0.242
308.15 K, x2 = 0.5703	0.251
308.15 K, x2 = 0.6528	0.249
308.15 K, x2 = 0.7263	0.235
308.15 K, x2 = 0.8093	0.202
308.15 K, x2 = 0.897	0.147
308.15 K, x2 = 0.9553	0.07

CCC(C)(C)O [2-methylbutan-2-ol]
Settings	mass density, [1] [kg/m3]	relative permittivity, [2]
298.15 K	804.31	5.63
308.15 K	795.16	5.23

CCC(C)(C)O [2-methylbutan-2-ol] + CCCCOCCCC
excess molar enthalpy [kcal/mol], [3]
Settings	298.15 K	308.15 K
x2 = 0.0916	0.0557	–
x2 = 0.0919	–	0.065
x2 = 0.1591	0.098	–
x2 = 0.1603	–	0.108
x2 = 0.2403	0.141	0.155
x2 = 0.3201	0.18	–
x2 = 0.3244	–	0.188
x2 = 0.3985	0.21	–
x2 = 0.4034	–	0.217
x2 = 0.4755	0.234	–
x2 = 0.476	–	0.244
x2 = 0.5445	0.249	–
x2 = 0.5541	–	0.262
x2 = 0.6392	0.258	–
x2 = 0.6992	0.255	–
x2 = 0.702	–	0.272
x2 = 0.7733	0.237	–
x2 = 0.7747	–	0.258
x2 = 0.8569	0.199	–
x2 = 0.8671	–	0.204
x2 = 0.9322	–	0.129
x2 = 0.933	0.123	–

CC(C)C(C)O (stereo not given) [3-methyl-2-butanol]
Settings	mass density, [1] [kg/m3]	relative permittivity, [2]
298.15 K	813.09	11.98
308.15 K	804.35	10.78

CC(C)C(C)O (stereo not given) [3-methyl-2-butanol] + CCCCOCCCC
[3]
Settings	excess molar enthalpy [kcal/mol]
298.15 K, x2 = 0.0959	0.0882
298.15 K, x2 = 0.1639	0.144
298.15 K, x2 = 0.2508	0.204
298.15 K, x2 = 0.3274	0.241
298.15 K, x2 = 0.3977	0.263
298.15 K, x2 = 0.4693	0.279
298.15 K, x2 = 0.552	0.289
298.15 K, x2 = 0.6335	0.287
298.15 K, x2 = 0.7081	0.273
298.15 K, x2 = 0.7757	0.248
298.15 K, x2 = 0.8645	0.194
298.15 K, x2 = 0.9394	0.106
308.15 K, x2 = 0.0813	0.0648
308.15 K, x2 = 0.155	0.118
308.15 K, x2 = 0.2572	0.181
308.15 K, x2 = 0.3229	0.233
308.15 K, x2 = 0.4119	0.263
308.15 K, x2 = 0.4817	0.281
308.15 K, x2 = 0.5473	0.288
308.15 K, x2 = 0.6348	0.287
308.15 K, x2 = 0.7226	0.269
308.15 K, x2 = 0.8083	0.235
308.15 K, x2 = 0.8908	0.168
308.15 K, x2 = 0.9786	0.0538

CC(C)CCO [3-methylbutan-1-ol]
Settings	mass density, [1] [kg/m3]	relative permittivity, [2]
298.15 K	804.24	15.09
308.15 K	796.95	13.73

CC(C)CCO [3-methylbutan-1-ol] + CCCCOCCCC
[3]
Settings	excess molar enthalpy [kcal/mol]
298.15 K, x2 = 0.092	0.0552
298.15 K, x2 = 0.1608	0.0932
298.15 K, x2 = 0.2389	0.132
298.15 K, x2 = 0.3161	0.16
298.15 K, x2 = 0.3993	0.187
298.15 K, x2 = 0.4694	0.204
298.15 K, x2 = 0.5458	0.216
298.15 K, x2 = 0.6389	0.221
298.15 K, x2 = 0.7088	0.211
298.15 K, x2 = 0.776	0.194
298.15 K, x2 = 0.8626	0.154
298.15 K, x2 = 0.9423	0.0837
308.15 K, x2 = 0.0836	0.054
308.15 K, x2 = 0.1547	0.0951
308.15 K, x2 = 0.2348	0.138
308.15 K, x2 = 0.3248	0.176
308.15 K, x2 = 0.4249	0.202
308.15 K, x2 = 0.4894	0.22
308.15 K, x2 = 0.5775	0.228
308.15 K, x2 = 0.6519	0.226
308.15 K, x2 = 0.7302	0.214
308.15 K, x2 = 0.787	0.194
308.15 K, x2 = 0.8553	0.161
308.15 K, x2 = 0.9681	0.0564

CCC(O)CC [3-pentanol]
Settings	mass density, [1] [kg/m3]	relative permittivity, [2]
298.15 K	815.62	13.21
308.15 K	806.9	11.39

CCC(O)CC [3-pentanol] + CCCCOCCCC
[3]
Settings	excess molar enthalpy [kcal/mol]
298.15 K, x2 = 0.0979	0.0951
298.15 K, x2 = 0.1702	0.159
298.15 K, x2 = 0.2558	0.219
298.15 K, x2 = 0.3242	0.257
298.15 K, x2 = 0.4033	0.283
298.15 K, x2 = 0.4684	0.302
298.15 K, x2 = 0.5438	0.314
298.15 K, x2 = 0.6374	0.311
298.15 K, x2 = 0.7023	0.3
298.15 K, x2 = 0.7739	0.269
298.15 K, x2 = 0.8554	0.214
298.15 K, x2 = 0.9278	0.129
308.15 K, x2 = 0.0991	0.0968
308.15 K, x2 = 0.1692	0.157
308.15 K, x2 = 0.235	0.202
308.15 K, x2 = 0.3202	0.25
308.15 K, x2 = 0.3985	0.276
308.15 K, x2 = 0.5414	0.306
308.15 K, x2 = 0.6464	0.306
308.15 K, x2 = 0.7326	0.29
308.15 K, x2 = 0.811	0.246
308.15 K, x2 = 0.8986	0.182
308.15 K, x2 = 0.9603	0.0817

CCCCCO [pentan-1-ol]
Settings	mass density, [1] [kg/m3]	relative permittivity, [2]
298.15 K	810.89	15
308.15 K	803.7	13.51

CCCC(C)O (stereo not given) [pentan-2-ol]
Settings	mass density, [1] [kg/m3]	relative permittivity, [2]
298.15 K	806.11	13.54
308.15 K	798	12.08

CCCC(C)O (stereo not given) [pentan-2-ol] + CCCCOCCCC
[3]
Settings	excess molar enthalpy [kcal/mol]
298.15 K, x2 = 0.0974	0.0839
298.15 K, x2 = 0.1685	0.136
298.15 K, x2 = 0.2474	0.185
298.15 K, x2 = 0.3335	0.225
298.15 K, x2 = 0.397	0.243
298.15 K, x2 = 0.5096	0.268
298.15 K, x2 = 0.549	0.27
298.15 K, x2 = 0.6386	0.268
298.15 K, x2 = 0.705	0.255
298.15 K, x2 = 0.7803	0.232
298.15 K, x2 = 0.8623	0.193
298.15 K, x2 = 0.9322	0.118
308.15 K, x2 = 0.0841	0.0758
308.15 K, x2 = 0.1634	0.138
308.15 K, x2 = 0.2305	0.182
308.15 K, x2 = 0.3156	0.225
308.15 K, x2 = 0.4161	0.264
308.15 K, x2 = 0.4834	0.284
308.15 K, x2 = 0.5759	0.288
308.15 K, x2 = 0.6314	0.286
308.15 K, x2 = 0.7299	0.265
308.15 K, x2 = 0.8144	0.234
308.15 K, x2 = 0.908	0.161
308.15 K, x2 = 0.964	0.0746
